Active and inactive are the calls of the source. No cut-off for these calls is given here.
How the values were obtained:
[1] = molecular target: Estrogen receptor beta (Mus musculus) (UniProt O08537); assay: Activation of ERbeta in mouse calvarial osteoblasts assessed as induction of osteoblast differentiation by measuring increase in ALP activity at 1 pM using PNPP as substrate after 48 hrs by colorimetric method
Calvarial osteoblast [2] = assay: Cytotoxicity against mouse calvarial osteoblasts at 0.000001 to 1 uM after 48 hrs by MTT assay; type: cell-based
[3] = molecular target: Estrogen receptor beta (Mus musculus) (UniProt O08537); assay: Activation of ERbeta in mouse calvarial osteoblasts assessed as induction of mineralization by measuring increase in calcium nodules at 1 pM supplemented with fresh medium containing compounds every 48 hrs for 18 days measured on day 18 by alizarin red-S staining based colorimetric method relative to control
Calvarial osteoblast [4] = assay: Induction of osteoblast differentiation in mouse calvarial osteoblasts assessed as increase in BMP2 mRNA expression at 1 to 100 pM after 48 hrs by SYBR green1 staining based RT-qPCR analysis; type: functional, cell-based
Calvarial osteoblast [5] = assay: Induction of osteoblast differentiation in mouse calvarial osteoblasts assessed as increase in RUNX2 mRNA expression at 1 to 100 pM after 48 hrs by SYBR green1 staining based RT-qPCR analysis; type: functional, cell-based
Calvarial osteoblast [6] = assay: Induction of osteoblast differentiation in mouse calvarial osteoblasts assessed as increase in osterix mRNA expression at 1 to 100 pM after 48 hrs by SYBR green1 staining based RT-qPCR analysis; type: functional, cell-based
[7] = molecular target: T1, Estrogen receptor (Mus musculus) (UniProt P19785); assay: Up regulation of ERalpha expression in mouse calvarial osteoblasts at 1 to 100 pM after 48 hrs by Western blot analysis
T1 sequence (whole entry): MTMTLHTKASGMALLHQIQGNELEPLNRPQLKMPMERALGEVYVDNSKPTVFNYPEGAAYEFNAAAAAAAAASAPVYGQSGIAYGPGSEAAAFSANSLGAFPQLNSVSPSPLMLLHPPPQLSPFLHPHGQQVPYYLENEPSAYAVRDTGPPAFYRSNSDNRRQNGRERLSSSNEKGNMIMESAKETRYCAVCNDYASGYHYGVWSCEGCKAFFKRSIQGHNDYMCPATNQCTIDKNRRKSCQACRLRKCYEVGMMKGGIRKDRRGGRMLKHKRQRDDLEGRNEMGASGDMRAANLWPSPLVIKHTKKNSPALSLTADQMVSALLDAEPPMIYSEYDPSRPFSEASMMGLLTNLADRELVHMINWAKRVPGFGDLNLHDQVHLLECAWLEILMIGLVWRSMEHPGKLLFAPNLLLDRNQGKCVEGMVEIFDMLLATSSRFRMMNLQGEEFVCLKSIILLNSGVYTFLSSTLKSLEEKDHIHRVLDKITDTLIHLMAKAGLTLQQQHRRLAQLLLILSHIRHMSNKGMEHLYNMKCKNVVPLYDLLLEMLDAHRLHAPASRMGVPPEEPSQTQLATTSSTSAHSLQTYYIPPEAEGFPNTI

[8] = molecular target: Estrogen receptor beta (Mus musculus) (UniProt O08537); assay: Up regulation of ERbeta expression in mouse calvarial osteoblasts at 1 to 100 pM after 48 hrs by Western blot analysis

Sequence of Estrogen receptor beta (Mus musculus) (O08537 whole entry): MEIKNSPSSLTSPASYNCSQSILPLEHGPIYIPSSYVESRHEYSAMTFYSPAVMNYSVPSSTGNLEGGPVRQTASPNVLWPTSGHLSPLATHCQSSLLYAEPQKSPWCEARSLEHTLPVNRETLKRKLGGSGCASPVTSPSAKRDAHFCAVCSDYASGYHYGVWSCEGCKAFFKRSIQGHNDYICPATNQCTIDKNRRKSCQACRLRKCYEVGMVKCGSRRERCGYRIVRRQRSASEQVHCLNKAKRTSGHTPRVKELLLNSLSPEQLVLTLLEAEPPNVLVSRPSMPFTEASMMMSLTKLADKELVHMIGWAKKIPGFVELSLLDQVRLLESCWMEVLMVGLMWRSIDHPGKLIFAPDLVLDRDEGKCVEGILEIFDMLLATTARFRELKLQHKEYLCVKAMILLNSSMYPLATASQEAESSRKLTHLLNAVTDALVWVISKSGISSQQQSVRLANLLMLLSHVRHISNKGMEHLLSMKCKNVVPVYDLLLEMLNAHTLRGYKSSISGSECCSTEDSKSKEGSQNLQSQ

| Activity [1] | Activity [3] | Activity [7] | Activity [8] | SMILES | Activity (Calvarial osteoblast [2]) | Activity (Calvarial osteoblast [4]) | Activity (Calvarial osteoblast [5]) | Activity (Calvarial osteoblast [6]) |
| --- | --- | --- | --- | --- | --- | --- | --- | --- |
| Active |  |  |  | COc1ccc(C2COc3cc(OCCCCCC(C)(C)O)ccc3C2)cc1 (centres undefined) | Non-Toxic |  |  |  |
| Active | 20% | Active | Active | COc1ccc(C2COc3cc(OCCCCC(C)(C)O)ccc3C2)cc1 (centres undefined) | Non-Toxic | Active | Active | Active |
| Active |  |  |  | CCOC(=O)CCCCCOc1ccc2c(c1)OCC(c1ccc(OC)cc1)C2 (centres undefined) | Non-Toxic |  |  |  |
| Active |  |  |  | CCC(O)(CC)CCCCOc1ccc2c(c1)OCC(c1ccc(OC)cc1)C2 (centres undefined) | Non-Toxic |  |  |  |

From ChEMBL document CHEMBL4190185 (Medchemcomm, 2016)
